Bridge positions count the residues as written; N and C are the ends. Square brackets hold non-standard residues; d marks the D form. Peptide text beside a SMILES is read from it. * marks the point of attachment. Heptanoyl(6-Me) = CC(C)CCCCC(=O)*; Dab = NCC[C@H](N)C(=O)O
Test system: Klebsiella pneumoniae
Assay: MALDI-TOF detection of released characteristic proteins, 10 min at 50° C., filtration (examples V, VI)
Format: cell-based
Conditions: for Aire sous la courbe des pics observés, 6290 / Aire sous la courbe des pics observés, 8308 / Aire sous la courbe des pics observés, CsbD domain-containing protein / Aire sous la courbe des pics observés, DNA binding protein H-NS / Aire sous la courbe des pics observés, Protéine ribosomique 50S L29 / Aire sous la courbe des pics observés, Protéine ribosomique 50S L31 / Aire sous la courbe des pics observés, Protéine ribosomique 50S L34 / Aire sous la courbe des pics observés, US9 / Ratio par protéine 6290/Colistine / Ratio par protéine 8308/Colistine / Ratio par protéine CsbD/Colistine / Ratio par protéine DNA BP H-NS/Colistine / Ratio par protéine L29/Colistine / Ratio par protéine L31/Colistine / Ratio par protéine L34/Colistine / Ratio par protéine US9/Colistine / Somme des ratios / sensitivity or resistance to colistin by MALDI-TOF: colistin 2.5 mg/ml, 10 min 50° C.; for classification by sum of the ratios against threshold: threshold 0.45
Protocol: The tests were carried out using the following steps: • preparing a suspension of microorganism at 2 McF in water (suspension medium, bioMérieux reference 70700), • preparing a solution of colistin sulfate (Sigma reference C4461) at a concentration of 2× in pure water (taking into account the colistin titer indicated by the manufacturer).
The proteins characteristic of the species Klebsiella pneumoniae are the DNA binding protein H-NS, the ribosomal proteins L29, L31, L34 and US9, the cold shock protein containing a CsbD domain (CsbD domain-containing protein), and the uncharacterized proteins with m/z 6290 and 8308. These proteins are characterized respectively by the peaks at 7705 (DNA binding protein H-NS), 7274 (L29), 7743 (L31), 5381 (L34), 7384 (US9), 8309 (CsbD), more or less 1000 parts per million (ppm). For their part, the hypothetical proteins are characterized by peaks at 6290 and […], more or less 1000 parts per million (ppm).
In the context of this example, the tests were carried out with the method of the present invention to determine the sensitivity or resistance of several bacteria of several strains such as in example V and comprising the following steps: • measuring the intensity of each peak observed, • finding a ratio between the sum of the intensities of the protein peaks of the microorganism and at least 1 peak of colistin. • determining the status, resistant or sensitive to colistin, as a function of the sum of the ratios obtained and of a threshold fixed for each species. • a resistant microorganism will have a low ratio and a sensitive microorganism will have a high ratio.
The K. pneumoniae strains KP S10-1, KP S10-2, KP S15-1, KP S15-2, KP R9-1, KP R9-2, KP R16-1 and KP R16-2 are also studied and the proteins characteristic of the species K. pneumoniae are analyzed. These characteristic proteins are the DNA binding protein H-NS, the ribosomal proteins L29, L31, L34 and US9, the cold shock protein containing a CsbD domain (CsbD domain-containing protein), and the uncharacterized proteins with m/z 6290 and 8308.

## CC(C)CCCCC(=O)N[C@@H](CCN)C(=O)N[C@H](C(=O)N[C@@H](CCN)C(=O)N[C@H]1CCNC(=O)[C@H]([C@@H](C)O)NC(=O)[C@H](CCN)NC(=O)[C@H](CCN)NC(=O)[C@H](CC(C)C)NC(=O)[C@@H](CC(C)C)NC(=O)[C@H](CCN)NC1=O)[C@@H](C)O [colistin] ({Heptanoyl(6-Me)}-[Dab]T[Dab][Dab][Dab][dL]L[Dab][Dab]T; lactam 4-C)
Strain KP R9-1
  Aire sous la courbe des pics observés, 6290: 0.00 unité arbitraire
  Aire sous la courbe des pics observés, 8308: 0 unité arbitraire
  Aire sous la courbe des pics observés, CsbD domain-containing protein: 0 unité arbitraire
  Aire sous la courbe des pics observés, DNA binding protein H-NS: 0.00 unité arbitraire
  Aire sous la courbe des pics observés, Protéine ribosomique 50S L29: 0 unité arbitraire
  Aire sous la courbe des pics observés, Protéine ribosomique 50S L31: 0 unité arbitraire
  Aire sous la courbe des pics observés, Protéine ribosomique 50S L34: 0 unité arbitraire
  Aire sous la courbe des pics observés, US9: 0 unité arbitraire
  Ratio par protéine 6290/Colistine: 0.00
  Ratio par protéine 8308/Colistine: 0.00
  Ratio par protéine CsbD/Colistine: 0.00
  Ratio par protéine DNA BP H-NS/Colistine: 0.00
  Ratio par protéine L29/Colistine: 0.00
  Ratio par protéine L31/Colistine: 0.00
  Ratio par protéine L34/Colistine: 0.00
  Ratio par protéine US9/Colistine: 0.00
  Somme des ratios: 0.00
Strain KP R9-2
  Aire sous la courbe des pics observés, 6290: 0.00 unité arbitraire
  Aire sous la courbe des pics observés, 8308: 0 unité arbitraire
  Aire sous la courbe des pics observés, CsbD domain-containing protein: 0 unité arbitraire
  Aire sous la courbe des pics observés, DNA binding protein H-NS: 89 unité arbitraire
  Aire sous la courbe des pics observés, Protéine ribosomique 50S L29: 0 unité arbitraire
  Aire sous la courbe des pics observés, Protéine ribosomique 50S L31: 0 unité arbitraire
  Aire sous la courbe des pics observés, Protéine ribosomique 50S L34: 0 unité arbitraire
  Aire sous la courbe des pics observés, US9: 0 unité arbitraire
  Ratio par protéine 6290/Colistine: 0.00
  Ratio par protéine 8308/Colistine: 0.00
  Ratio par protéine CsbD/Colistine: 0.00
  Ratio par protéine DNA BP H-NS/Colistine: 0.11
  Ratio par protéine L29/Colistine: 0.00
  Ratio par protéine L31/Colistine: 0.00
  Ratio par protéine L34/Colistine: 0.00
  Ratio par protéine US9/Colistine: 0.00
  Somme des ratios: 0.11
Strain KP R16-1
  Aire sous la courbe des pics observés, 6290: 0.00 unité arbitraire
  Aire sous la courbe des pics observés, 8308: 0 unité arbitraire
  Aire sous la courbe des pics observés, CsbD domain-containing protein: 0 unité arbitraire
  Aire sous la courbe des pics observés, DNA binding protein H-NS: 0.00 unité arbitraire
  Aire sous la courbe des pics observés, Protéine ribosomique 50S L29: 0 unité arbitraire
  Aire sous la courbe des pics observés, Protéine ribosomique 50S L31: 0 unité arbitraire
  Aire sous la courbe des pics observés, Protéine ribosomique 50S L34: 0 unité arbitraire
  Aire sous la courbe des pics observés, US9: 0 unité arbitraire
  Ratio par protéine 6290/Colistine: 0.00
  Ratio par protéine 8308/Colistine: 0.00
  Ratio par protéine CsbD/Colistine: 0.00
  Ratio par protéine DNA BP H-NS/Colistine: 0.00
  Ratio par protéine L29/Colistine: 0.00
  Ratio par protéine L31/Colistine: 0.00
  Ratio par protéine L34/Colistine: 0.00
  Ratio par protéine US9/Colistine: 0.00
  Somme des ratios: 0.00
Strain KP R16-2
  Aire sous la courbe des pics observés, 6290: 0.00 unité arbitraire
  Aire sous la courbe des pics observés, 8308: 0 unité arbitraire
  Aire sous la courbe des pics observés, CsbD domain-containing protein: 0 unité arbitraire
  Aire sous la courbe des pics observés, DNA binding protein H-NS: 0.00 unité arbitraire
  Aire sous la courbe des pics observés, Protéine ribosomique 50S L29: 0 unité arbitraire
  Aire sous la courbe des pics observés, Protéine ribosomique 50S L31: 0 unité arbitraire
  Aire sous la courbe des pics observés, Protéine ribosomique 50S L34: 0 unité arbitraire
  Aire sous la courbe des pics observés, US9: 0 unité arbitraire
  Ratio par protéine 6290/Colistine: 0.00
  Ratio par protéine 8308/Colistine: 0.00
  Ratio par protéine CsbD/Colistine: 0.00
  Ratio par protéine DNA BP H-NS/Colistine: 0.00
  Ratio par protéine L29/Colistine: 0.00
  Ratio par protéine L31/Colistine: 0.00
  Ratio par protéine L34/Colistine: 0.00
  Ratio par protéine US9/Colistine: 0.00
  Somme des ratios: 0.00
Strain KP S10-1
  Aire sous la courbe des pics observés, 6290: 837 unité arbitraire
  Aire sous la courbe des pics observés, 8308: 209 unité arbitraire
  Aire sous la courbe des pics observés, CsbD domain-containing protein: 0 unité arbitraire
  Aire sous la courbe des pics observés, DNA binding protein H-NS: 374 unité arbitraire
  Aire sous la courbe des pics observés, Protéine ribosomique 50S L29: 474 unité arbitraire
  Aire sous la courbe des pics observés, Protéine ribosomique 50S L31: 321 unité arbitraire
  Aire sous la courbe des pics observés, Protéine ribosomique 50S L34: 0 unité arbitraire
  Aire sous la courbe des pics observés, US9: 297 unité arbitraire
  Ratio par protéine 6290/Colistine: 0.55
  Ratio par protéine 8308/Colistine: 0.14
  Ratio par protéine CsbD/Colistine: 0.00
  Ratio par protéine DNA BP H-NS/Colistine: 0.25
  Ratio par protéine L29/Colistine: 0.31
  Ratio par protéine L31/Colistine: 0.21
  Ratio par protéine L34/Colistine: 0.00
  Ratio par protéine US9/Colistine: 0.20
  Somme des ratios: 1.66
Strain KP S10-2
  Aire sous la courbe des pics observés, 6290: 146 unité arbitraire
  Aire sous la courbe des pics observés, 8308: 54 unité arbitraire
  Aire sous la courbe des pics observés, CsbD domain-containing protein: 0 unité arbitraire
  Aire sous la courbe des pics observés, DNA binding protein H-NS: 119 unité arbitraire
  Aire sous la courbe des pics observés, Protéine ribosomique 50S L29: 124 unité arbitraire
  Aire sous la courbe des pics observés, Protéine ribosomique 50S L31: 76 unité arbitraire
  Aire sous la courbe des pics observés, Protéine ribosomique 50S L34: 134 unité arbitraire
  Aire sous la courbe des pics observés, US9: 77 unité arbitraire
  Ratio par protéine 6290/Colistine: 0.17
  Ratio par protéine 8308/Colistine: 0.06
  Ratio par protéine CsbD/Colistine: 0.00
  Ratio par protéine DNA BP H-NS/Colistine: 0.14
  Ratio par protéine L29/Colistine: 0.15
  Ratio par protéine L31/Colistine: 0.09
  Ratio par protéine L34/Colistine: 0.16
  Ratio par protéine US9/Colistine: 0.09
  Somme des ratios: 0.86
Strain KP S15-1
  Aire sous la courbe des pics observés, 6290: 215 unité arbitraire
  Aire sous la courbe des pics observés, 8308: 0 unité arbitraire
  Aire sous la courbe des pics observés, CsbD domain-containing protein: 248 unité arbitraire
  Aire sous la courbe des pics observés, DNA binding protein H-NS: 0 unité arbitraire
  Aire sous la courbe des pics observés, Protéine ribosomique 50S L29: 0 unité arbitraire
  Aire sous la courbe des pics observés, Protéine ribosomique 50S L31: 0 unité arbitraire
  Aire sous la courbe des pics observés, Protéine ribosomique 50S L34: 0 unité arbitraire
  Aire sous la courbe des pics observés, US9: 150 unité arbitraire
  Ratio par protéine 6290/Colistine: 0.24
  Ratio par protéine 8308/Colistine: 0.00
  Ratio par protéine CsbD/Colistine: 0.28
  Ratio par protéine DNA BP H-NS/Colistine: 0.00
  Ratio par protéine L29/Colistine: 0.00
  Ratio par protéine L31/Colistine: 0.00
  Ratio par protéine L34/Colistine: 0.00
  Ratio par protéine US9/Colistine: 0.17
  Somme des ratios: 0.68
Strain KP S15-2
  Aire sous la courbe des pics observés, 6290: 141 unité arbitraire
  Aire sous la courbe des pics observés, 8308: 0 unité arbitraire
  Aire sous la courbe des pics observés, CsbD domain-containing protein: 237 unité arbitraire
  Aire sous la courbe des pics observés, DNA binding protein H-NS: 0 unité arbitraire
  Aire sous la courbe des pics observés, Protéine ribosomique 50S L29: 0 unité arbitraire
  Aire sous la courbe des pics observés, Protéine ribosomique 50S L31: 0 unité arbitraire
  Aire sous la courbe des pics observés, Protéine ribosomique 50S L34: 0 unité arbitraire
  Aire sous la courbe des pics observés, US9: 92 unité arbitraire
  Ratio par protéine 6290/Colistine: 0.14
  Ratio par protéine 8308/Colistine: 0.00
  Ratio par protéine CsbD/Colistine: 0.23
  Ratio par protéine DNA BP H-NS/Colistine: 0.00
  Ratio par protéine L29/Colistine: 0.00
  Ratio par protéine L31/Colistine: 0.00
  Ratio par protéine L34/Colistine: 0.00
  Ratio par protéine US9/Colistine: 0.088
  Somme des ratios: 0.45
Strain KP-R9
  classification by sum of the ratios against threshold: resistant (the strains whose sum of the ratios is strictly below 0.45 will be considered as resistant)
Strain KP-R16
  classification by sum of the ratios against threshold: resistant (the strains whose sum of the ratios is strictly below 0.45 will be considered as resistant)
Strain KP-S10
  classification by sum of the ratios against threshold: sensitive (the strains whose sum of the ratios is greater than or equal to 0.45 will be considered as sensitive)
Strain KP-S15
  classification by sum of the ratios against threshold: sensitive (the strains whose sum of the ratios is greater than or equal to 0.45 will be considered as sensitive)
Strain KP_R9
  sensitivity or resistance to colistin by MALDI-TOF: resistant
Strain KP_R16
  sensitivity or resistance to colistin by MALDI-TOF: resistant
Strain KP_S10
  sensitivity or resistance to colistin by MALDI-TOF: sensitive
Strain KP_S15
  sensitivity or resistance to colistin by MALDI-TOF: sensitive

Reference: US12460243B2, “Mass spectrometry determination of the sensitivity or resistance of bacteria to an antibiotic” (priority 2019, dated 2025)
